Read-outs that look alike come from different tables or passages of the source. Marks after values point to notes of the source that are not given here.
Columns and labels:
MCF10A cells [1] = assay: Screen for potentiation of DNA damaging agents (MMS, camptothecin, cis-platinum, 3 aminobenzamide, ionizing radiation); format: cell-based, human
Excerpt: The 192 human DNA ligase inhibitors were screened in parallel for effects on proliferation and the ability to potentiate the effects of several DNA damaging agents using two cell human lines, a colon cancer line HCT116 and a normal breast epithelial cell line MCF10A using a Biomek FX Laboratory Automation Workstation as described (23). The DNA damaging agents used, methyl methanesulfonate (MMS), camptothecin, cis-platinum, 3 aminobenzamide and ionizing radiation, are representatives of classes of agents used to treat cancer. Briefly, HCT116 and MCF10A cells were plated in 96 well plates such that the cultures were about 80% confluent after 5 days incubation. Compounds were added to the cultures at either 15 μM or 50 μM 1 day after plating. After incubation for 3 days, cell lysed in a solution containing 1.2% Igepal CA-630 and SYBR green that stains DNA (1:1000, Molecular Probes, Eugene, Oreg.). Subsequently, fluorescence was measured per well. The studies with DNA damaging agents were performed as follows. […] Cultures were incubated for 3 days and then treated as above.

hLigI = molecular target: T1, hLigI (Homo sapiens, UniProt P18858); assay: High-throughput fluorescence-based DNA joining (ligation) assay; format: biochemical
T1 construct: made in house
T1 sequence (P18858 whole entry): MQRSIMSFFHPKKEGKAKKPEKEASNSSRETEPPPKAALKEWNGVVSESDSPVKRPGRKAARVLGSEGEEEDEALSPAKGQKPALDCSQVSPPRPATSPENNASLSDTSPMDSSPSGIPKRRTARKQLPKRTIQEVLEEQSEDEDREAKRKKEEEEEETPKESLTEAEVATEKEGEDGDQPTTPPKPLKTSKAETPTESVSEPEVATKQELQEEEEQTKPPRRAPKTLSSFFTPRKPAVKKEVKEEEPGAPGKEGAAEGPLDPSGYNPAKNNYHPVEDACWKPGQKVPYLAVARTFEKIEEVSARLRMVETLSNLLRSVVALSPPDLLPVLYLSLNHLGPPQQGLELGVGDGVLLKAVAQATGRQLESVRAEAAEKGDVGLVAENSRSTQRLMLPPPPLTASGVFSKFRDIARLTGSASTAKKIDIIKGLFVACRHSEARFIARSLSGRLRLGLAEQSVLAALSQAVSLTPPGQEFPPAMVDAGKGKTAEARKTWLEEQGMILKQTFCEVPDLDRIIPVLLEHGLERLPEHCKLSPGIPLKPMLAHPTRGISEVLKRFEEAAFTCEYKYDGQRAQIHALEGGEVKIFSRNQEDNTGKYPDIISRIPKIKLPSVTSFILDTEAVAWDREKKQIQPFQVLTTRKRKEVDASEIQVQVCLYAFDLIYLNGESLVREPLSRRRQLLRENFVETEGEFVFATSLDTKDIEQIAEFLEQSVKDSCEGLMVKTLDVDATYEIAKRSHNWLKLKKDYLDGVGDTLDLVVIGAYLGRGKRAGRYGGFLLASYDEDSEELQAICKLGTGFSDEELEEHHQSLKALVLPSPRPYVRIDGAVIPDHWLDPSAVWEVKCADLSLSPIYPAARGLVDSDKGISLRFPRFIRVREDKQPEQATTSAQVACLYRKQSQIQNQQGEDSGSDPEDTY
Protocol: Candidate ligase inhibitors identified by CADD were assayed for their ability to inhibit hLigI and T4 DNA ligase using a high-throughput, fluorescence energy transfer-based DNA joining assay (22). Duplicate reactions (30 μL) containing 10 pmol of nicked DNA substrate and either 0.25 pmol of hLigI or 10 units of T4 DNA ligase were incubated in the presence or absence of 100 μmol/L of the putative inhibitor. DNA binding by the candidate DNA ligase inhibitors was measured by displacement of ethidium bromide from DNA as previously described (30).
(§1) The method for screening compounds comprises testing the compound for the ability to inhibit human DNA ligases I, III and IV with a high throughput fluorescence-based ligation assay. In this assay, phosphodiester bond formation covalently links together two oligonucleotides, one of which is a fluorescent donor AF488 that is 11 nucleotides from the 3′ terminus and the other contains a fluorescence acceptor and quencher, BHQ1 that is 15 nucleotides from the 5′ terminus. When these oligonucleotides are present in separate duplexes and in the same nicked or intact duplex, there is no significant quenching of fluorescence because the donor and acceptor are too far apart. As single-strands neither the AF488 oligonucleotide nor the BHQ1 oligonucleotides have significant secondary structure. However, when these oligonucleotides are ligated together, the resultant single strand forms a stable hairpin structure, in which the AF488 and BHQ1 groups are very close together, resulting in efficient intra-molecular quenching of fluorescence. Thus, in the DNA joining assay, the DNA substrate is denatured after incubation with the DNA ligase and then renatured in the presence of a 20-fold excess of an oligonucleotide that is identical to the ligated strand containing the fluorescent door and acceptor except that it lacks these modifications. Using this assay, DNA joining, which results in reduced fluorescence at 518 nm, can be measured rapidly, quantitatively and with high-throughput using a fluorescence plate reader.
(§2) Applicants developed a novel high throughput fluorescence-based ligation assay by modifying the sequence of the oligos to optimize hairpin formation by the single strand ligated product of the high throughput fluorescence-based ligation assay of Chen et al (22). […] Compound stock solutions, which were 10 mM in 0.5% DMSO, were diluted in 0.5% DMSO. Human DNA ligases I and III were assayed with a nicked DNA substrate whereas as the substrate for human DNA ligase IV was two oligonucleotide duplexes with short complementary single strand ends.

HCT116 cells [2] = assay: MTT cell growth assay; format: cell-based, human; settings: cell growth, compound alone, read-out: IC50 (μM) HCT116
Protocol: (§3) The activity of hits from the initial screen was further validated using the MTT assay. Briefly, MCF10A and HCT116 cells were seeded in 96 well plates at 300 and 1200 cells per well, respectively, and allowed to adhere overnight. The following day, serial dilutions of compounds in media were added to the cells in a final volume 200 μl. After incubation for 5 days, MTT reagent (3-(4,5-dimthylthiazol-2-yl)-2,5-diphenyltatrazolium) was added and incubation was continued for 4 h. Formazan crystals generated by reduction of the MTT reagent in mitochondria were solubilized with isopropanol prior to the measurement of absorbance at 560 nm wavelength in a plate reader.
After incubation for 5 days, cell growth was measured by the MTT assay (16).

HCT116 cells [3] = assay: Screen for potentiation of DNA damaging agents (MMS, camptothecin, cis-platinum, 3 aminobenzamide, ionizing radiation); format: cell-based, human
Excerpt: (§4) The 192 human DNA ligase inhibitors were screened in parallel for effects on proliferation and the ability to potentiate the effects of several DNA damaging agents using two cell human lines, a colon cancer line HCT116 and a normal breast epithelial cell line MCF10A using a Biomek FX Laboratory Automation Workstation as described (23). The DNA damaging agents used, methyl methanesulfonate (MMS), camptothecin, cis-platinum, 3 aminobenzamide and ionizing radiation, are representatives of classes of agents used to treat cancer. Briefly, HCT116 and MCF10A cells were plated in 96 well plates such that the cultures were about 80% confluent after 5 days incubation. Compounds were added to the cultures at either 15 μM or 50 μM 1 day after plating. After incubation for 3 days, cell lysed in a solution containing 1.2% Igepal CA-630 and SYBR green that stains DNA (1:1000, Molecular Probes, Eugene, Oreg.). Subsequently, fluorescence was measured per well. The studies with DNA damaging agents were performed as follows. […] For ionizing radiation, cells were pre-incubated with the compounds at 50 μM for 1 hour prior to exposure to 2 gray of ionizing radiation. Cultures were incubated for 3 days and then treated as above.

HCT116 and MCF10A cells = assay: Screen for potentiation of DNA damaging agents, cell line not stated with the result; format: cell-based, human; settings: 50 μM, 2 gray of ionizing radiation
Excerpt: as §4

human DNA ligase IV = human DNA ligase IV (Homo sapiens, UniProt P49917); assay: High-throughput fluorescence-based DNA joining (ligation) assay; format: biochemical
Chain of human DNA ligase IV (P49917 whole entry): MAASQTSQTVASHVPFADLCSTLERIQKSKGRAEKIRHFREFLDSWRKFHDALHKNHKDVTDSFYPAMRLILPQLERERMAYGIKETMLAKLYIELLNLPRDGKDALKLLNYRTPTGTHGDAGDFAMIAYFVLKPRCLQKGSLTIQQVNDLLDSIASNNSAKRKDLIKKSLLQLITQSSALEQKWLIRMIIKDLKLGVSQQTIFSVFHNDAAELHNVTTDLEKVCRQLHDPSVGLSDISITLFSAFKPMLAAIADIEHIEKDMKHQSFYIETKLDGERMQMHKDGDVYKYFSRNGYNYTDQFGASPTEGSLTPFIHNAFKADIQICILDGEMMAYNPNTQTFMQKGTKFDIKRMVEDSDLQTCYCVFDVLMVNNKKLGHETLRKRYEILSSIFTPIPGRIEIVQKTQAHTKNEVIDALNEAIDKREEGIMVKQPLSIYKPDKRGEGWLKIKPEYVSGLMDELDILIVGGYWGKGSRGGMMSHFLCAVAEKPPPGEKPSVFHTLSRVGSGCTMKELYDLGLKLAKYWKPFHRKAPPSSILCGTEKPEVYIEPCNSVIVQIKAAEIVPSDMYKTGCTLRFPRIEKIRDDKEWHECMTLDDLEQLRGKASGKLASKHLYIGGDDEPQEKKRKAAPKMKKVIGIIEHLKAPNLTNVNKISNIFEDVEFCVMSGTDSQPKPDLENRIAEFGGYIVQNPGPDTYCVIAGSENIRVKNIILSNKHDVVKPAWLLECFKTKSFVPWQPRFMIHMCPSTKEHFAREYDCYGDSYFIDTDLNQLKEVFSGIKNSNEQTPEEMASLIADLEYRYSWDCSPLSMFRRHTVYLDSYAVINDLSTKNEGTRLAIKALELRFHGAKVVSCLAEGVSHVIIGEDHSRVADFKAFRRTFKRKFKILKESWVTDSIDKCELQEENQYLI
Chain of human DNA ligase IV (Q13426 whole entry partner): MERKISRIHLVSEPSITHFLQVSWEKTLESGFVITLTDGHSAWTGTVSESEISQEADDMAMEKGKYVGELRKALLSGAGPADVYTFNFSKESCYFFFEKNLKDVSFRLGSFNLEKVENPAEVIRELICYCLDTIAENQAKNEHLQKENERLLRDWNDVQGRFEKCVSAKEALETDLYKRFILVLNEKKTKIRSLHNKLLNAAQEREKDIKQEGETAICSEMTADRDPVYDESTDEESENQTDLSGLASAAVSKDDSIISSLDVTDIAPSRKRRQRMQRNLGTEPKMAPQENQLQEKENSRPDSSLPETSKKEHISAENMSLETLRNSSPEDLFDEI
Excerpt: as §1, §2

human DNA ligase III = molecular target: T2, human DNA ligase III (Homo sapiens, UniProt P49916); assay: as above; format: biochemical
T2 sequence (P49916 1-862 isoform P49916-4): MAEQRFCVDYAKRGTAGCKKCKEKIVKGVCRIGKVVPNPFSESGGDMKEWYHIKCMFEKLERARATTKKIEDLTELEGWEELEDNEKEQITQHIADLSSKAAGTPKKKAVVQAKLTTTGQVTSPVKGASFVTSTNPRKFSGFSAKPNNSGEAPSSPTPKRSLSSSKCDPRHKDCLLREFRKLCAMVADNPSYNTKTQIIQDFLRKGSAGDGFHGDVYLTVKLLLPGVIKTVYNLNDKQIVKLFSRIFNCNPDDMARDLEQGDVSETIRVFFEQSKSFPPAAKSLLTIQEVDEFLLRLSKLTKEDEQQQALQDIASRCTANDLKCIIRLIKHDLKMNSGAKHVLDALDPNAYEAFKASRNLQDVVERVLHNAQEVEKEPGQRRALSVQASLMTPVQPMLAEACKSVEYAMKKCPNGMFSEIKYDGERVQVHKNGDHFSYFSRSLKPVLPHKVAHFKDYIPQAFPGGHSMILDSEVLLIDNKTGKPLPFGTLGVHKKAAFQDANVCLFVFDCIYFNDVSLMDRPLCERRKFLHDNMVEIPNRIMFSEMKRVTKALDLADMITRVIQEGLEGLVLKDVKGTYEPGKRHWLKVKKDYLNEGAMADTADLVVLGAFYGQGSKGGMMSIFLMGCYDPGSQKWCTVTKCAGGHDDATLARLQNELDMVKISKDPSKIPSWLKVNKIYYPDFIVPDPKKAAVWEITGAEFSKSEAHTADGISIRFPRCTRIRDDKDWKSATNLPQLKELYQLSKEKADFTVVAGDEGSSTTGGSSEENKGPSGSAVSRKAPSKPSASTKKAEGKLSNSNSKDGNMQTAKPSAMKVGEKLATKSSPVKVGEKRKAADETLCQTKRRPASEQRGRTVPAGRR
Excerpt: as §1, §2

MCF10A cells [4] = assay: MTT cell growth assay; format: cell-based, human; settings: Homo sapiens, MCF-10A; sections 'high concentrations (~50 μM)' and 'active in vitro that decreased cell growth'; same figures given in μM elsewhere in Table 6; read-out: IC50 MCF10A (head without unit)
Protocol: as §3
To extend the results of the […] cell culture screening assay, a subset of compounds were tested in larger cultures. Different concentrations of Compounds 67 and 151 were added to asynchronous subconfluent populations of HCT116 and MCF10A cells. Asynchronous subconfluent populations of HCT116 and MCF10A cells were pre-treated with different concentrations of compound 64 prior to the addition of 3 aminobenzamide (2 mM) MMS (100 μM) or cis-platinum (1 μM). After incubation for 5 days, cell growth was measured by the MTT assay (16).

[5] = compound alone vs combination with 3-AB (2 mM), 1 = no sensitization

Row | SMILES | Radiosensitizers: IC50 ratios MCF10A (MCF10A cells [1]; ionizing radiation) | % of inhibition @ 100 μM (Helen's data) hLigI (hLigI; 100 μM) | IC50 (HCT116 cells [2]) | Radiosensitizers: IC50 ratios HCT116 (HCT116 cells [3]; ionizing radiation) | radiosensitizer activity (HCT116 and MCF10A cells) | % of inhibition @ 100 μM (Helen's data) hLigIV (human DNA ligase IV; 100 μM) | % of inhibition @ 100 μM (Helen's data) hLigIII (human DNA ligase III; 100 μM) | IC50 (MCF10A cells [4]) | IC50 ratios of non- and 3-AB treated cells MCF10A (MCF10A cells [1]; [5]) | inhibition at 100 µM (hLigI; read-out: % of inhibition @ 100 μM (Helen's data) hLigI) | IC50 (HCT116 cells [2]; Homo sapiens, HCT-116) | IC50 ratios of non- and 3-AB treated cells HCT116 (HCT116 cells [3]; [5]) | MMS: Ratios of IC50 HCT116 (HCT116 cells [3]; compound alone vs combination with MMS (100 μM), 1 = no sensitization) | inhibition at 100 µM (human DNA ligase IV; read-out: % of inhibition @ 100 μM (Helen's data) hLigIV) | inhibition at 100 µM (human DNA ligase III; read-out: % of inhibition @ 100 μM (Helen's data) hLigIII)
1 | CCc1ccc(NS(=O)(=O)c2ccc(Cl)s2)cc1 [Compound 105] | 1 | NI (NI- no inhibition) | ~50 µM | 1.3 | act as radiosensitizers | NI (NI- no inhibition) | NI (NI- no inhibition) | – | – | – | – | – | – | – | –
2 | O=C1NC(=S)NC(=O)C1=NNc1cccc(C(=O)O)c1 [Compound 198] | – | – | – | – | – | – | – | > 50 µM | 2** | < 20% | > 50 µM | 1 | 2** | < 20% | < 20%
